Data as given in patent US5854010A, “Bioassay for detecting 2,3,7,8-tetrachlorodibenzo-para-dioxin and TCDD-like compounds and novel recombinant cell line useful therefor” (priority 1997, dated 1998).

Experiments:
human HG2L1.1c3 cells = experiment: Antagonism of TCDD luciferase induction by 2,2',5,5'-TCB (FIG. 7); type: cell-based; details: TCDD 5 nM, 24 h
Experimental: (§1) The bar graph of FIG. 7 illustrates that 2,2',5,5'-TCB antagonizes induction of luciferase activity by TCDD in a species-specific manner, and thus, 2,2',5,5'-TCB is not a TCDD-like compound as defined herein. In particular, six-well plates containing the indicated cell lines were incubated with DMSO (control), with TCDD (5 nM), with 2,2',5,5'-TCB (25 μM), or with both TCDD (5 nM) and 2,2',5,5'-TCB (25 μM) for 24 hours. Luciferase activity in cell lysates was determined as described above. Values represent the mean ± the standard evaluation of at least triplicate determinations.

[1] = tested on: guinea pig G16L1.1c8 cells; experiment: as above; type: cell-based; details: TCDD 5 nM, 24 h
Experimental: as §1

rat H4L1.1c4 cells = experiment: as above; type: cell-based; details: TCDD 5 nM, 24 h
Experimental: as §1

H1L1.1 cells = experiment: Dose response of luciferase induction, 24 h (FIGS. 3-6, Table 3); type: cell-based, mouse; details: for Induced luciferase activity, TCDD reference: 1 nM TCDD in DMSO
Experimental: The graph of FIG. 3 illustrates the dose dependence of luciferase induction in the mouse H1L1.1 cells measured following […] of the cells to increasing concentrations of TCDD or other toxic compounds (which others are discussed in more detail below).
More particularly, the stable cell clones for the mouse H1L1.1 cells (about 90% confluent) were plated into six-well microplates (purchased from Corning) and incubated for 24 hours with the indicated concentration of the particular toxin solubilized in DMSO. Then, the cells were lysed with 100 μl of lysis buffer and luciferase activity was determined as described above. Values represent the mean ± the standard evaluation of at least triplicate determinations.
As set out in Table 3, the responsiveness and sensitivity of the mouse H1L1.1 cells was compared to the responsiveness and sensitivity of certain other published PCDH cell bioassay systems. The other systems were a recombinant HepG2 (101L) cell line that induces firefly luciferase (see, Postlind et al., supra), a recombinant Hepa1 (T13) cell line that induces PAP activity (see El-Fouly et al., supra), and a rat H4IIE cell line that induces EROD activity (see, Kennedy et al., supra). The ED50 values were calculated by probit analysis of the dose-response data.
As set out in the graphs of FIGS. 3-6, since one use of the stably transfected mouse H1L1.1 cell lines is for detection and relative quantitative analysis of TCDD and various dioxin-like compounds (i.e., AhR ligands), the ability of various compounds besides TCDD to induce luciferase activity in the mouse H1L1.1 cells was examined. The experiments performed to determine the dose-response curves for the toxins other than TCDD set out in the graphs of FIGS. 3-6 were performed in essentially the same manner as the experiments described above to determine the dose response curve of TCDD set out in the graph of FIG. 3.
Specifically, with respect to the data illustrated in the graph of FIG. 3, cells were incubated with increasing concentrations of test chemical and luciferase activity determined after 24 hours.
It should be noted that the low numerical values of luciferase activity from induction by various PCBs reported in FIGS. 4 and 5, compared to the values reported in the other figures, are not due to actual low levels of luciferase induction, but to the fact that the detection of luminescence in these experiments was performed using a different instrument from that used in the other experiments.
However, the relative magnitude of luciferase induction by the mono-ortho-PCBs (FIG. 4) and the AROCLORS (FIG. 5) was established by directly comparing the resulting activity to that produced by a maximally inducing dose of TCDD (1 nM solubilized in DMSO) measured in the same instrument.

hamster lung AHL cells = experiment: TCDD-inducible luciferase activity, transient transfection with pGudLuc1.1; type: cell-based
Experimental: In general, the expression vectors pGudLuc1.0 and pGudLuc1.1 were prepared as follows. A 1330-bp HindIII fragment or an 1810-bp HindIII fragment isolated from the plasmid, pMpap1.0 or pMpap1.1, respectively (see, El-Fouly et al., supra), was subcloned into the HindIII site immediately upstream of the luciferase gene in the plasmid pGL2-basic (purchased from Promega).
More specifically, the following cells were obtained from the source indicated. Wild-type and AhR-defective (BPRc1 and TAO, respectively) mouse hepatoma (Hepa1c1c7) cells (Hepa1), derived from a C57B1 mouse liver tumor, were obtained from J. P. Whitlock, Jr. (Stanford University). These cells were grown as previously described by Miller et al. in "Biochemical and Genetic Analysis of Variant Mouse Hepatoma Cells Defective in the Induction of Benzo(a)pyrene Metabolizing Enzyme Activity", J. Biol. Chem., Vol. 258, pp. 3523-3527 (1983). Additionally, mouse hepatoma (MLE/BV) cells, derived from a spontaneously immortalized C3H/HeN mouse liver cell, were obtained from B. V. Madhukar (Indiana University School of Medicine, Indianapolis, Ind.) and were grown as described for the Hepa1 cells. Rat hepatoma (H4IIe) cells, guinea pig intestinal adenocarcinoma (GPC16) cells, hamster lung (AHL) cells, human hepatoma (HepG2) cells, human breast tumor (MCF7) cells, and human intestinal epithelial (LS180) cells were obtained from the American Type Culture Collection (Rockville, Md.). Until transfection, all of the cells were maintained according to their respective cell-type-specific culture protocols.
Transfection was accomplished as follows. Using polybrene as previously described by Helferich et al. in "Photooxidized Products of Tryptophan Can Act as Dioxin Agonists", Mol. Pharmacol., Vol. 40, pp. 674-678 (1991), plates of cells (approximately 80% confluent) were transiently transfected with the desired plasmid (15 μg). Then, the transfected cells were allowed to grow for 48 hours, followed by the addition of either DMSO (1 μl/ml) or TCDD (1 nM) solubilized in DMSO, which was followed by incubation for 24 hours. Next, the plates were transferred onto ice, and the media were removed, after which the plates were rinsed twice with cold PBS. Then, 200 μl of luciferase lysis buffer (purchased from Promega) was used to lyse the cells. The lysed cell samples were collected and transferred into a microfuge tube. Cell debris was pelleted by centrifugation, and the supernatants were collected. The supernatant samples were assayed for TCDD-inducible luciferase activity in the following manner.
Using the stabilized luciferase assay system (purchased from Promega), luciferase activity in an aliquot of the cleared lysed cell supernatant (20 μl) was determined by mixing it with 100 µl of luciferase assay reagent (purchased from Promega) and measuring the resulting luminescence in a Turner Luminometer or Dynatech ML3000 microplate luminometer (light output was integrated over 1 minute after a delay time of 30 seconds).
Using a microplate adaptation of the method reported by Bradford in "A Rapid Sensitive Method for the Quantitation of Microgram Quantities of Protein Utilizing the Principle of Protein-Dye Binding", Anal. Biochem., […], pp. 248-254 (1976), luciferase activity was standardized to the protein concentration of the supernatant (with bovine serum albumin as the protein standard). Because of instrument differences in luminescence measurement and data output, luciferase activity was determined as relative light units (RLU) per microgram of protein, which was converted to milligram of protein as reported in the Tables below.

Clc1cc2c(cc1Cl)Oc1cc(Cl)c(Cl)cc1O2 [TCDD, 2,3,7,8-tetrachlorodibenzo-para-dioxin]
Luciferase induction by TCDD alone (human HG2L1.1c3 cells): induced luciferase activity | Luciferase induction by TCDD alone [1]: induced luciferase activity | Luciferase induction by TCDD alone (rat H4L1.1c4 cells): induced luciferase activity | Induced luciferase activity, TCDD reference (H1L1.1 cells; instrument of FIG. 4): 2.25±0.6 | Induced luciferase activity, TCDD reference (H1L1.1 cells; instrument of FIG. 5): 0.95±0.07 | EC50 (H1L1.1 cells; Mus musculus, 24 h, FIG. 3): ~0.02 nM | fold induction at 0.001 µM (H1L1.1 cells; Mus musculus, by 1.0 nM TCDD, 24 h, FIG. 3, read-out: Maximal induction of luciferase activity): 80 | Dose dependence of luciferase induction (H1L1.1 cells; TCDD, 24 h, FIG. 3): dose dependent | Luciferase activity, TCDD in DMSO (hamster lung AHL cells; Luc1.1, TCDD 1 nM, 24 h): 174 RLU/mg protein | fold induction (hamster lung AHL cells; Mesocricetus auratus, Luc1.1, TCDD 1 nM vs DMSO): 5.8
